Read-outs that look alike come from different tables or passages of the source.
Legend:
[1] = tested on: mice exposed to ionizing radiation; experiment: Total body irradiation study: survival and body weight (Example 1); type: in vivo; conditions: for Percent Dead Per Group: 50 mg/kg p.o. q.d. + 200 ppm in drinking water Days 1-18
Experimental: Male mice were exposed to an acute irradiation dose on Day 0 of 0, 12.5, or 13.0 Gy at a rate of 1 Gy/min with lead shielding to the left hind limb. Starting 24 hours after irradiation, the mice were untreated or treated with PAAG or vehicle control, given with 50 mg/kg via oral gavage daily and dosed ad libitum in the drinking water (200 ppm PAAG) from days 1 to 18. The treatment groups are summarized on TABLE 1.
The total body irradiation study was performed as described above with control vehicle or PAAG (86 kDa and 30% functionalization) administered to the mice at the indicated final concentrations. […] As shown in the Kaplan-Meier Survival Plot in FIG. 1, there was no mortality in animals that were not irradiated. […] In fact, 88% of the treated animals survived while only 19% of the untreated animals survived. […] The comparative mortality data from these experiments is tabulated on TABLE 2.

[2] = tested on: irradiated left buccal cheek pouch (oral mucositis); experiment: Mucosal radiation dose ranging study, oral mucositis (Example 2); type: in vivo, Syrian Golden hamsters; conditions: 40 Gy to cheek pouch; 50, 100, 250 and 500 μg/mL t.i.d. into the pouch
Experimental: In a dose ranging study, an acute dose of irradiation of 40 Gy directed to the left buccal cheek pouch of Syrian Golden hamsters and the hamsters were treated t.i.d. with 50, 100, 250 and 500 μg/mL PAAG or vehicle control directly inserted into the pouch. Mean % weight change and mucositis score were recorded. The mucosal radiation dose ranging study was performed as described above with PAAG (86 kDa and 30% functionalization) added to the indicated final concentrations. […] A comparison of the mean percent weight gain for […] dosed with vehicle control and four dosing concentrations of PAAG is shown in FIG. 4. […] The healing effect of PAAG is shown in FIG. 6, which depicts the comparison of the percentage of animals with a mucositis score of 3 or higher on a given day post irradiation for a vehicle control and three doses of PAAG.

[3] = tested on: irradiated left buccal cheek pouch (oral mucositis); experiment: Oral mucositis scheduling study (Example 3); type: in vivo, hamsters; conditions: 200 ppm thrice daily Day -1 to 14 or Day 10 to 36, relative to Day -7 to 36 or Day -1 to 36
Experimental: In a scheduling study, an acute dose of irradiation of 40 Gy directed to the left buccal cheek pouch and the hamsters were treated t.i.d. with 200 μg/mL PAAG or vehicle control directly inserted into the pouch. Schedules included PAAG treatment Day—7 to 36, Day—1 to 36, Day—1 to 14, and Day 10-36. Mean % weight change and mucositis score were recorded. Oral mucositis scheduling study was performed as described above with PAAG (86 kDa and 30% functionalization) added to the indicated final concentrations. The mean mucositis scores for a vehicle control and 200 ppm PAAG administered thrice daily from Day—7 to 36, Day—1 to 36, Day—1 to 14, or Day 10 to 36 is shown in FIG. 7. […] dosed with 200 ppm PAAG administered thrice daily from Day—1 to 14 or from Day 10 to 36 have a reduced mean mucositis score relative to mice dosed with 200 ppm PAAG thrice daily from Day—7 to 36 or from Day—1 to 36.

[4] = tested on: IL-8 production in U937 cells; experiment: IL-8 production response in LPS-stimulated U937 cells (IL-8 ELISA); type: cell-based, human; conditions: 1 h pretreatment, rinsed, LPS 10 ng/ml 4 h; relative to control or lactoferrin pretreatment
[5] = tested on: MRSA strain MW2 (ATCC BAA-1707); experiment: Nasal epithelium/MRSA binding assay (RPMI-2650 cells); type: cell-based; conditions: pretreatment 200 or 500 ppm for 5 and 60 minutes; compared to PBS and media controls
Burkholderia cepacia = Burkholderia cepacia macrophage uptake (U937); type: cell-based; conditions: pretreatment of U937 with 200 μg/mL; relative to untreated cells
Experimental: Burkholderia cepacia macrophage uptake. The myeloid cell line (U937) were grown in RPMI 1640 supplemented with 10% (v/v) fetal bovine serum and 2 mm L-glutamine. Cells were seeded at 6×10^5 cells per well in 24 well plates in RPMI 1640 additionally supplemented with 0.1 ug PMA for 48 hours to activate U937 cells to be macrophage-like. Cell media was replaced with cell media without fetal bovine serum and PMA for at least 2 hours. Treatments consisted of either PAAG (200 ug/ml) treated on cells for one hour and being rinsed with D-PBS twice before inoculation or with PAAG treatment with no rinse. Upon completion of pretreatment with PAAG, cells were inoculated with Burkholderia cepacia in growth phase with an MOI of 1:10 for 45 min. After inoculation period media is supplemented with 50 ug/ml of gentamicin for another 45 min. Cells were then rinsed twice with D-PBS before being lysed using 0.5% Triton X-100 in D-PBS and serially diluted, plated and counted for bacterial uptake.
Pretreatment and binding studies were performed as described above for Caco2 cells with Acinetobacter attachment and Burkholderia cepacia macrophage uptake studies, with the PAAG (86 kDa and 30% functionalization) added to the indicated final concentrations.

[6] = tested on: small intestine of irradiated C57BL/6 mice
[7] = Irradiation biomarkers in plasma (pro-calcitonin, citrulline) (Example 10)
[8] = tested on: bacteria in the mesenteric lymph nodes; experiment: Intestinal bacterial translocation: bacterial count in mesenteric lymph nodes (Example 9); conditions: irradiated animals, 13 Gy; FIG. 16
[9] = 13 Gy, day 4, quantitative histology, FIG. 19

## poly (acetyl, arginyl) glucosamine [PAAG]
[1]; 12.5Gy of radiation, p=0.081
  survival difference between treated and untreated groups: No statistical difference
[1]; 12.5 Gy, n=16
  Percent Dead Per Group: 31.25%
[1]; 12.5 Gy, Day 5, euthanized, n=16
  No. of Death: 1
[1]; 12.5 Gy, Day 6, euthanized, n=16
  No. of Death: 1
[1]; 12.5 Gy, Day 7, euthanized, n=16
  No. of Death: 3
[1]; 13.0 Gy, based on n=15
  Percent Dead Per Group: 13.33^¶ Percent
[1]; 13.0 Gy, Day 6, found dead, n=15
  No. of Death: 1
[1]; 13.0 Gy, Day 18, euthanized, n=15
  No. of Death: 1
[1]; LD 80 dose (13.0 Gy), p<0.0001
  survival difference vehicle versus PAAG: very significant
[1]; LD 80 dose of radiation (13.0 Gy), untreated 19%
  treated animals survived: 88%
[1]; compared with untreated animals, FIG. 2
  mean percent weight change: no significant effect
[1]; no radiation, n=5
  Percent Dead Per Group: 0%
  No. of Death: 0
[2]
  course of oral mucositis: modulated the course of oral mucositis
[3]
  mean mucositis score: reduced
[4]
  LPS activated IL-8 response: reduced
[5]
  binding of MRSA to nasal epithelial cells: decreases
Burkholderia cepacia
  percentage of bacterial invasion by Burkholderia cepacia: decreases
[6]; 13 Gy, day 2, 50 mg/kg PO
  crypt degeneration: mild to moderate
  villi height, structure and epithelium: retained their normal height and structure
[6]; 13 Gy, day 3, 50 mg/kg PO
  crypt regeneration: mild to moderate
  villi blunting: minimally blunted
[6]; 13 Gy, day 4, 50 mg/kg PO
  crypt loss: moderate to marked
  crypt regeneration: moderate to marked
[6]; 13 Gy, day 4, compared with vehicle group 3
  loss of villous epithelium: not as severe as in group 3 animals
[6]; [9]
  GI inflammation relative to control: reduced
  crypt loss relative to control: reduced
  epithelial loss relative to control: reduced
[6]; 13 Gy, days 2-4
  crypt degeneration versus vehicle-treated mice: less severe
  inflammation versus vehicle-treated mice: reduced
  protection from the gastrointestinal effects of total body irradiation: partially protected
[6]; mouse, in vivo, po, 50 mg/kg
  small intestine histology: essentially normal
[7]; 13 Gy
  citrulline reduction versus untreated irradiated animals: statistically less
[7]; 13 Gy, oral gavage once a day
  circulating plasma levels of PCT relative to controls: reduced
[7]; day 3 and 4 after lethal ionizing radiation
  circulating amounts of citrulline relative to control: increased
[8]
  bacteria in the MLN (CFU/g) versus vehicle control group: dramatically less

From patent US12594296B2, “Methods for treatment or prevention of damage resulting from radiation, trauma or shock” (priority 2012, dated 2026)
